Consider four molecules from ChEMBL document CHEMBL5252657, “Artefenomel Regioisomer RLA-3107 Is a Promising Lead for the Discovery of Next-Generation Endoperoxide Antimalarials” (ACS Med Chem Lett, 2023).

Calls of active or inactive are those of the source. No cut-off for these calls is given here.

Data set [1] concerns Plasmodium berghei. The data set can be described thus: Antiplasmodial activity against Plasmodium berghei infected in Swiss Webster mouse model assessed as reduction in parasitemia at 10 mg/kg, po administered once daily for 4 days and measured after 30 days by Giemsa staining based microscopic analysis. In kind it is functional, organism-based. Conditions: time 30.0 day.
Data set [2] relates to Plasmodium berghei. The data set can be described thus: Antiplasmodial activity against Plasmodium berghei infected in Swiss Webster mouse model assessed as reduction in parasitemia at 2 mg/kg, po administered once daily for 4 days and measured after 30 days by Giemsa staining based microscopic analysis. The following applies: time 30.0 day. In kind it is functional, organism-based.

In data set [3] the test system is Plasmodium berghei. The data set can be described thus: Antiplasmodial activity against Plasmodium berghei infected in Swiss Webster mouse model assessed as reduction in parasitemia at 6 mg/kg, po administered once daily for 4 days and measured after 30 days by Giemsa staining based microscopic analysis. The following applies: time 30.0 day. Type of data set: functional, organism-based.

Data set [4] deals with Plasmodium berghei. The data set can be described thus: Antiplasmodial activity against Plasmodium berghei infected in Swiss Webster mouse model assessed as reduction in parasitemia at 4 mg/kg, po administered once daily for 4 days and measured after 30 days by Giemsa staining based microscopic analysis. Type of data set: functional, organism-based. The following applies: time 30.0 day.

Data set [5] deals with Plasmodium berghei. The data set can be described thus: Antiplasmodial activity against Plasmodium berghei infected in Swiss Webster mouse model assessed as reduction in parasitemia at 6 mg/kg, po administered once daily for 4 days and measured after 11 days by Giemsa staining based microscopic analysis. Type of data set: functional, organism-based. Conditions: time 11.0 day.

Data set [6] concerns Plasmodium berghei. The data set can be described thus: Antiplasmodial activity against Plasmodium berghei infected in Swiss Webster mouse model assessed as reduction in parasitemia at 4 mg/kg, po administered once daily for 4 days and measured after 11 days by Giemsa staining based microscopic analysis. The following applies: time 11.0 day. Type of data set: functional, organism-based.

For data set [7], the system named is Plasmodium berghei. The data set can be described thus: Antiplasmodial activity against Plasmodium berghei infected in Swiss Webster mouse model assessed as reduction in parasitemia at 30 mg/kg, po administered as single dose and measured after 11 days by Giemsa staining based microscopic analysis. The following applies: time 11.0 day. Type of data set: functional, organism-based.

In the next data set the test system is Plasmodium falciparum. The data set can be described thus: Antiplasmodial activity against chloroquine-resistant ring stage Plasmodium falciparum W2 infected in human erythrocytes assessed as reduction in parasite growth incubated for 48 hrs by YOYO-1 dye based flow cytometric analysis. In kind it is functional, organism-based. The following applies: W2, Erythrocyte.

Data set [8] has as its system Plasmodium berghei. The data set can be described thus: Antiplasmodial activity against Plasmodium berghei infected in Swiss Webster mouse model assessed as reduction in parasitemia at 80 mg/kg, po administered as single dose and measured after 11 days by Giemsa staining based microscopic analysis. Type of data set: functional, organism-based. The following applies: time 11.0 day.

Data set [9] relates to Plasmodium berghei. The data set can be described thus: Antiplasmodial activity against Plasmodium berghei infected in Swiss Webster mouse model assessed as reduction in parasitemia at 2 mg/kg, po administered once daily for 4 days and measured after 11 days by Giemsa staining based microscopic analysis. In kind it is functional, organism-based. The following applies: time 11.0 day.

For data set [10], the system named is Plasmodium berghei. The data set can be described thus: Antiplasmodial activity against Plasmodium berghei infected in Swiss Webster mouse model assessed as reduction in parasitemia at 20 mg/kg, po administered as single dose and measured after 30 days by Giemsa staining based microscopic analysis. Type of data set: functional, organism-based. The following applies: time 30.0 day.

The subject of data set [11] is Plasmodium berghei. The data set can be described thus: Antiplasmodial activity against Plasmodium berghei infected in Swiss Webster mouse model assessed as reduction in parasitemia at 80 mg/kg, po administered as single dose and measured after 30 days by Giemsa staining based microscopic analysis. In kind it is functional, organism-based. The following applies: time 30.0 day.

Data set [12] in a line: Stability in human liver microsomes assessed as intrinsic clearance at 1 uM measured upto 60 mins by LC-MS/MS analysis. The following applies: read-out: CLH. Type of data set: ADME, Microsome. A general note: Liver microsomes are a subcellular fraction often used to study metabolism.
The test system of data set [13] is Plasmodium berghei. The data set can be described thus: Antiplasmodial activity against Plasmodium berghei infected in Swiss Webster mouse model assessed as reduction in parasitemia at 30 mg/kg, po administered as single dose and measured after 30 days by Giemsa staining based microscopic analysis. The following applies: time 30.0 day. Type of data set: functional, organism-based.

For data set [14], the system named is Plasmodium berghei. The data set can be described thus: Antiplasmodial activity against Plasmodium berghei infected in Swiss Webster mouse model assessed as reduction in parasitemia at 40 mg/kg, po administered as single dose and measured after 11 days by Giemsa staining based microscopic analysis. In kind it is functional, organism-based. Conditions: time 11.0 day.

Data set [15] in a line: Aqueous solubility of the compound in PBS at pH 7.4. In kind it is physicochemical.
The subject of data set [16] is Plasmodium berghei. The data set can be described thus: Antiplasmodial activity against Plasmodium berghei infected in Swiss Webster mouse model assessed as reduction in parasitemia at 40 mg/kg, po administered as single dose and measured after 30 days by Giemsa staining based microscopic analysis. Type of data set: functional, organism-based. Conditions: time 30.0 day.

The subject of data set [17] is Plasmodium berghei. The data set can be described thus: Antiplasmodial activity against Plasmodium berghei infected in Swiss Webster mouse model assessed as reduction in parasitemia at 10 mg/kg, po administered once daily for 4 days and measured after 11 days by Giemsa staining based microscopic analysis. In kind it is functional, organism-based. The following applies: time 11.0 day.

Broadly, the EC50 is the concentration giving half of the maximal effect. Regarding `c1cc([C@H]2CCC[C@@]3(C2)OOC2(O3)C3CC4CC(C3)CC2C4)ccc1OCCN1CCOCC1` (stereo not given in full), the outcome in the data set with Plasmodium berghei [1], with Plasmodium berghei [2], in the data set on Plasmodium berghei [3], in the data set on Plasmodium berghei [4], in the data set with Plasmodium berghei [5] and in the data set with Plasmodium berghei [6] was inactive. In addition, the result in the data set with Plasmodium berghei [9], in the data set on Plasmodium berghei [10] and with Plasmodium berghei [13] was inactive. The result in the data set on Plasmodium berghei [7], with Plasmodium berghei [8] and with Plasmodium berghei [11] was Active. Also, the concentration for a half-maximal effect (EC50) in the data set on Plasmodium falciparum is 24.1 nM. In addition, the microsomal CLint at 1 µM in [12] was found to be 21.3 µL/min/mg.

In general, solubility refers to the concentration that dissolves in the medium under given conditions. `c1cc([C@H]2CC[C@@]3(CC2)OOC2(O3)C3CC4CC(C3)CC2C4)ccc1OCCN1CCOCC1` (stereo not given in full): the result in the data set with Plasmodium berghei [1], with Plasmodium berghei [3], with Plasmodium berghei [14], with Plasmodium berghei [5], in the data set with Plasmodium berghei [6] and in the data set on Plasmodium berghei [7] was Active. Besides, the result with Plasmodium berghei [8], in the data set on Plasmodium berghei [10], in the data set with Plasmodium berghei [16], with Plasmodium berghei [11], in the data set with Plasmodium berghei [17] and in the data set with Plasmodium berghei [13] was Active. Besides, the concentration giving a half-maximal response (EC50) in the data set with Plasmodium falciparum is 11.2 nM. The molecule further registered a solubility in data set [15] of under 2.5 µM.

In the case of `O=C([O-])Cc1ccccc1Nc1c(Cl)cccc1Cl.[Na+]` [DICLOFENAC SODIUM], in data set [15], the solubility amounted to 199 µM.

In the case of `C[C@@H]1CC[C@H]2[C@@H](C)C(=O)O[C@@H]3O[C@@]4(C)CC[C@@H]1[C@]32OO4` [ARTEMISININ], the EC50 with Plasmodium falciparum is 17.3 nM.
